The assay has as its target T1, Sec31 (Candida albicans, UniProt Q5AAU3).
T1 construct: gene PGA63; full-length with N-terminal GFP tag, expressed in C. albicans, tested in whole cell lysate; COPII coat component
T1 sequence (Q5AAU3 1-1265): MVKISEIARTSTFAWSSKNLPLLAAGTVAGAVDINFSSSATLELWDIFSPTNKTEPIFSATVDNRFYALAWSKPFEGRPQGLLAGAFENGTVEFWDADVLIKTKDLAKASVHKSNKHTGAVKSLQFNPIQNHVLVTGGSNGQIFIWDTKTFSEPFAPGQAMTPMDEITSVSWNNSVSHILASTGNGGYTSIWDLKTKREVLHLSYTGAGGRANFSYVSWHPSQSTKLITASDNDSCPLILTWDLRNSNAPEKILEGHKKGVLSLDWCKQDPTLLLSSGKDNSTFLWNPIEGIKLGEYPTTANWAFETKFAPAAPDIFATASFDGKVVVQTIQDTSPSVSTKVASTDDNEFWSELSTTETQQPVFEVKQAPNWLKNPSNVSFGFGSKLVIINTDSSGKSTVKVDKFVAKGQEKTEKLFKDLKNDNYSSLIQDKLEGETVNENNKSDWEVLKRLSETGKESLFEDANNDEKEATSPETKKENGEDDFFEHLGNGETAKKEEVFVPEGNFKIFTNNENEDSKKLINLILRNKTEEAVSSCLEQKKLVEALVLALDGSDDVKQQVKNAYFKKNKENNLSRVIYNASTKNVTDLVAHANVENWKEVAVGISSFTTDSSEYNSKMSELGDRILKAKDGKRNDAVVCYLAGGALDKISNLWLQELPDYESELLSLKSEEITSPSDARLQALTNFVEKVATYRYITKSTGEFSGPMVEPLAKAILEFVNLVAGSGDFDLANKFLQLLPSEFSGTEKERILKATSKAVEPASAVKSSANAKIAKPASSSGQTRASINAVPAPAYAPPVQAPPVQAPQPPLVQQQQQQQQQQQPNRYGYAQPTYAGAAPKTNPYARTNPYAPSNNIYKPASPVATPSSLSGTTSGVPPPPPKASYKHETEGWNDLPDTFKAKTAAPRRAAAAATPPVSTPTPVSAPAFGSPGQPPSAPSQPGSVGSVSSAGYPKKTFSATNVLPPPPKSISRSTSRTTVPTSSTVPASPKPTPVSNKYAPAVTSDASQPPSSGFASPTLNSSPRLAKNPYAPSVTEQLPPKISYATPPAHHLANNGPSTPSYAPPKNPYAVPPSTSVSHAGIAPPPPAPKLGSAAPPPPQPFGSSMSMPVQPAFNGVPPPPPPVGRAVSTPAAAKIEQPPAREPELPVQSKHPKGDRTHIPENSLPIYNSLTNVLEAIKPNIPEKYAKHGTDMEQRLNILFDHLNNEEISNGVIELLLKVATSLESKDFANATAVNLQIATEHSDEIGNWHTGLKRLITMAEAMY
The experiment in a line: DARTS, thermolysin protection, anti-GFP western blot. Particulars: GFP-Sec31 cell lysate; OTB 3.125 to 12.5 µg/mL, 1 h room temperature; thermolysin 15 min; beta-tubulin as control. The class given is biochemical. (In general: Immunoblotting shows a protein as a band on a membrane.)

Take `CCCCCCCCOc1ccccc1C(=O)Nc1ccc(C(=O)OCC[N+](C)(CC)CC)cc1` [otilonium bromide]: the “DARTS, thermolysin protection, anti-GFP western blot” value was “OTB effectively shielded Sec31 from degradation induced by thermolysin”.
